Data from patent US10329295B2, “Pyrrolotriazine inhibitors of IRAK4 activity” (MERCK SHARP & DOHME CORP., priority 2015, dated 2019).
Structures can show the parent of a compound that is named as a salt.

target: GST tagged IRAK4 (Homo sapiens (Human), UniProt Q9NWZ3); assay: IRAK4 Kinase Assay (IMAP fluorescence polarization); assay type: biochemical; conditions: 0.5 nM GST tagged IRAK4, 100 μM ATP, 30 minutes at 25° C.
Method: The kinase activity of IRAK4 is determined by its ability to catalyze the phosphorylation of a fluorescent polypeptide substrate. The extent of phosphorylation is measured using the IMAP technology (Molecular Devices) where the phosphorylated fluorescent substrate binds to the large M(III)-based nanoparticles which reduces the rotational speed of the substrate and thus increases its fluorescent polarization (FP).
20 μL reaction mixture contains 10 mM TriHCl, pH 7.2, 0.5 nM GST tagged IRAK4 (SignalChem), 100 nM fluorescent peptide substrate (RP7030, Molecular Devices), 100 μM ATP, 1 mM DDT, 1 mM MgCl2, and 0.01% Tween 20. The reaction is initiated by the addition of ATP. After incubation for 30 minutes at 25° C., 60 μL of Progressive IMAP Reagent (Molecular Devices) is added to stop the reaction. Change in RP7030's FP is determined by a FP reader (Analyst HT, LJL BioSystems).

Sequence of GST tagged IRAK4 (Q9NWZ3 whole entry): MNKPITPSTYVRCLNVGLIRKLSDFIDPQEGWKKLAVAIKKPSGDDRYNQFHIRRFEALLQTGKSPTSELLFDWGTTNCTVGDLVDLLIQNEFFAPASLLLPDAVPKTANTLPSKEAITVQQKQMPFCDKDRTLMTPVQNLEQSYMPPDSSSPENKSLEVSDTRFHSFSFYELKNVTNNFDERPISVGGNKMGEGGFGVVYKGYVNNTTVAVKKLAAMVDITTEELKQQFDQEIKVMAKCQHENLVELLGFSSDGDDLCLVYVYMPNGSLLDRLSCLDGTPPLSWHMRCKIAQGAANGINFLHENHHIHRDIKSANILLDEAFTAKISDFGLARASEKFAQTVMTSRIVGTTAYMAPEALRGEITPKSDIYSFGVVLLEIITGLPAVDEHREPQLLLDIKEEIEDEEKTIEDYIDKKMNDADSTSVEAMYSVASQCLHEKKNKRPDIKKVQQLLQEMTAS

IC50	Structure (SMILES)
125 nM	Cn1cc(NC(=O)c2ccc3cnc(N4C[C@@H]5CC[C@H]4CN5)nn23)c(Cl)n1 (single isomer, unassigned) [Example 44, N-(3-chloro-1-methyl-1H-pyrazol-4-yl)-2-[(1S,4S)- or (1R,4R)-2,5-diazabicyclo[2.2.2]oct-2-yl]pyrrolo[2,1-f][1,2,4]triazine-7-carboxamide trifluoroacetate]
80 nM	Cn1cc(NC(=O)c2ccc3cnc(N4C[C@H]5CC[C@@H]4CN5)nn23)c(Cl)n1 (single isomer, unassigned) [Example 45, N-(3-chloro-1-methyl-1H-pyrazol-4-yl)-2-[(1S,4S)- or (1R,4R)-2,5-diazabicyclo[2.2.2]oct-2-yl]pyrrolo[2,1-f][1,2,4]triazine-7-carboxamide trifluoroacetate]
72 nM	Cn1cc(NC(=O)c2ccc3cnc(N4C[C@@H]5CC[C@H]4CN5)nn23)c(C#N)n1 (single isomer, unassigned) [Example 46, N-(3-cyano-1-methyl-1H-pyrazol-4-yl)-2-[(1S,4S)- or (1R,4R)-2,5-diazabicyclo[2.2.2]oct-2-yl]pyrrolo[2,1-f][1,2,4]triazine-7-carboxamide trifluoroacetate]
265 nM	Cn1cc(NC(=O)c2ccc3cnc(N4C[C@H]5CC[C@@H]4CN5)nn23)c(C#N)n1 (single isomer, unassigned) [Example 47, N-(3-cyano-1-methyl-1H-pyrazol-4-yl)-2-[(1S,4S)- or (1R,4R)-2,5-diazabicyclo[2.2.2]oct-2-yl]pyrrolo[2,1-f][1,2,4]triazine-7-carboxamide trifluoroacetate]
1650 nM	O=C(Nc1ccsc1Br)c1ccc2cnc(N3C[C@@H]4CC[C@H]3CN4)nn12 (single isomer, unassigned) [Example 48, N-(2-bromothiophen-3-yl)-2-[(1S,4S)- or (1R,4R)-2,5-diazabicyclo[2.2.2]oct-2-yl]pyrrolo[2,1-f][1,2,4]triazine-7-carboxamide trifluoroacetate]
1930 nM	O=C(Nc1ccsc1Br)c1ccc2cnc(N3C[C@H]4CC[C@@H]3CN4)nn12 (single isomer, unassigned) [Example 49, N-(2-bromothiophen-3-yl)-2-[(1S,4S)- or (1R,4R)-2,5-diazabicyclo[2.2.2]oct-2-yl]pyrrolo[2,1-f][1,2,4]triazine-7-carboxamide trifluoroacetate]
1640 nM	O=C(Nc1ccsc1Cl)c1ccc2cnc(N3C[C@@H]4CC[C@H]3CN4)nn12 (single isomer, unassigned) [Example 53, N-(2-chlorothiophen-3-yl)-2-[(1S,4S)- or (1R,4R)-2,5-diazabicyclo[2.2.2]oct-2-yl]pyrrolo[2,1-f][1,2,4]triazine-7-carboxamide trifluoroacetate]
819 nM	O=C(Nc1ccsc1Cl)c1ccc2cnc(N3C[C@H]4CC[C@@H]3CN4)nn12 (single isomer, unassigned) [Example 54, N-(2-chlorothiophen-3-yl)-2-[(1S,4S)- or (1R,4R)-2,5-diazabicyclo[2.2.2]oct-2-yl]pyrrolo[2,1-f][1,2,4]triazine-7-carboxamide trifluoroacetate]
557 nM	O=C(Nc1ccccc1Cl)c1ccc2cnc(N3C[C@H]4CC[C@@H]3CN4)nn12 (single isomer, unassigned) [Example 55, N-(2-chlorophenyl)-2-[(1S,4S)- or (1R,4R)-2,5-diazabicyclo[2.2.2]oct-2-yl]pyrrolo[2,1-f][1,2,4]triazine-7-carboxamide trifluoroacetate]
8 nM	N#Cc1ccccc1NC(=O)c1ccc2cnc(N[C@H]3CCCCNC3)nn12 (single isomer, unassigned) [Example 60, 2-[(3S)- or (3R)-azepan-3-ylamino]-N-(2-cyanophenyl)pyrrolo[2,1-f][1,2,4]triazine-7-carboxamide trifluoroacetate]
10000 nM	O=C(Nc1ccccc1C(F)F)c1ccc2cnc(N3C[C@@H]4CC[C@H]3CN4)nn12 (single isomer, unassigned) [Example 61, 2-[(1S,4S)- or (1R,4R)-2,5-diazabicyclo[2.2.2]oct-2-yl]-N-[2-(difluoromethyl)phenyl]-pyrrolo[2,1-f][1,2,4]triazine-7-carboxamide trifluoroacetate]
944 nM	O=C(Nc1ccccc1C(F)F)c1ccc2cnc(N3C[C@H]4CC[C@@H]3CN4)nn12 (single isomer, unassigned) [Example 62, 2-[(1S,4S)- or (1R,4R)-2,5-diazabicyclo[2.2.2]oct-2-yl]-N-[2-(difluoromethyl)phenyl]-pyrrolo[2,1-f][1,2,4]triazine-7-carboxamide trifluoroacetate]
92 nM	Cn1cc(NC(=O)c2ccc3cnc(N4C[C@@H]5CC[C@H]4CN5)nn23)c(Br)n1 (single isomer, unassigned) [Example 63, N-(3-bromo-1-methyl-1H-pyrazol-4-yl)-2-[(1S,4S)- or (1R,4R)-2,5-diazabicyclo[2.2.2]oct-2-yl]pyrrolo[2,1-f][1,2,4]triazine-7-carboxamide trifluoroacetate]
122 nM	Cn1cc(NC(=O)c2ccc3cnc(N4C[C@H]5CC[C@@H]4CN5)nn23)c(Br)n1 (single isomer, unassigned) [Example 64, N-(3-bromo-1-methyl-1H-pyrazol-4-yl)-2-[(1S,4S)- or (1R,4R)-2,5-diazabicyclo[2.2.2]oct-2-yl]pyrrolo[2,1-f][1,2,4]triazine-7-carboxamide trifluoroacetate]
2060 nM	O=C(Nc1ccccc1Cl)c1ccc2cnc(N3C[C@@H]4CC[C@H]3CN4)nn12 (single isomer, unassigned) [Example 65, N-(2-chlorophenyl)-2-[(1S,4S)- or (1R,4R)-2,5-diazabicyclo[2.2.2]oct-2-yl]pyrrolo[2,1-f][1,2,4]triazine-7-carboxamide trifluoroacetate]
218 nM	O=C(Nc1ccccc1C(F)(F)F)c1ccc2cnc(N3C[C@H]4CC[C@@H]3CN4)nn12 (single isomer, unassigned) [Example 68, 2-[(1S,4S)- or (1R,4R)-2,5-diazabicyclo[2.2.2]oct-2-yl]-N-[2-(trifluoromethyl)phenyl]-pyrrolo[2,1-f][1,2,4]triazine-7-carboxamide trifluoroacetate]
5 nM	Cn1cc(NC(=O)c2ccc3cnc(N[C@H]4CCCCNC4)nn23)c(C(F)(F)F)n1 (single isomer, unassigned) [Example 69, 2-[(3S)- or (3R)-azepan-3-ylamino]-N-[1-methyl-3-(trifluoromethyl)-1H-pyrazol-4-yl]pyrrolo[2,1-f][1,2,4]triazine-7-carboxamide trifluoroacetate]
4 nM	Cn1cc(NC(=O)c2ccc3cnc(N[C@@H]4CCCCNC4)nn23)c(C(F)(F)F)n1 (single isomer, unassigned) [Example 72, 2-[(3S)- or (3R)-azepan-3-ylamino]-N-[1-methyl-3-(trifluoromethyl)-1H-pyrazol-4-yl]pyrrolo[2,1-f][1,2,4]triazine-7-carboxamide trifluoroacetate]
27 nM	N#Cc1ccccc1NC(=O)c1ccc2cnc(N[C@@H]3CCCCNC3)nn12 (single isomer, unassigned) [Example 73, 2-[(3S)- or (3R)-azepan-3-ylamino]-N-(2-cyanophenyl)pyrrolo[2,1-f][1,2,4]triazine-7-carboxamide trifluoroacetate]
